Measured values taken from patent publication EP1309253B1, “METHODS AND DEVICES FOR REMOVING NU[…] FROM TOBACCO AND TOBACCO SMOKE” (Cerami Consulting Corporation, priority 2000, dated 2002).

Conditions: 250 mg portions of each compound as filter; smoke from one cigarette drawn through 3 mls of distilled water; read at 405 nm; compared with control cigarette
Protocol: The treated fibers were then dried overnight at 37 C. The smoke from one cigarette was drawn through the filter material and then through 3 mls of distilled water using a water-pipe smoking device which was constructed from a 25 ml glass Erlenmeyer flask attached to a vacuum source with an air flow rate of approximately 35 ml/min. Three 100 microliter aliquots were removed from each flask, placed into ELISA plate wells and read in an ELISA plate reader at 405 nm. The percentage or tar removed is based on a comparison between the cigarette comprising the filter containing the test agent and an appropriate control cigarette.
The treated fibers were dried at 37 C overnight and then made into a tobacco cigarette using a tube cigarette maker. The smoke from 1 of each type of filter cigarette was then drawn through 3 mls of distilled water using a water-pipe smoking device which was constructed from a small (25 ml) glass Erlenmeyer flask attached to a vacuum source with an air flow rate of approximately 35 ml/min. Three 100 microliter aliquots were removed from each flask, placed into ELISA plated wells and read in an ELISA plate reader at 405 nm.

SMILES	% TAR REMOVAL
O=C1C=C2CC3(O)COc4c(ccc(O)c4O)C3=C2C=C1O (stereo not shown) [Hematein, 6a,7-dihydro-3,4,6a,10 tetrahydroxyben[b]indeno[1,2-d]pyran-9(6H)-one]	48.7%
CC12CCC(C(=O)C1=O)C2(C)C (stereo not shown) [Camphorquinone]	53.9%
O=C1NC(=O)C(=O)C(=O)N1 [Alloxan]	96.9%
C[C@H](NC(=O)OC(C)(C)C)C(=O)ON1C(=O)CCC1=O [N-α-t-BOC-L-alanine-N-hydroxysuccinimide ester]	25%
O=Cc1ccccc1C=O [O-phthaldialdehyde]	84%
O=CC(=O)c1ccccc1 [Phenylglyoxal]	53%
O=C1c2ccccc2C(=O)C1(O)O [Ninhydrin]	83%
O=C1c2ccccc2C(=O)C1(O)C1(O)C(=O)c2ccccc2C1=O [Hydrindantin]	95%
O=C(C=CC=Cc1ccccc1)C=CC=Cc1ccccc1 [Dicinnamalacetone]	98.1%
CC1(C)CC(=O)CC(=O)C1 [(5,5-dimethyl-1,3-cyclohexanedione, 5,5-dimethyl-1,3-cyclohexanedione]	26%
O=C(/C=C/C(=O)c1ccccc1)c1ccccc1 [Fumarophenone]	87.5%
CC(C)(C)OC(=O)NCCCCCC(=O)ON1C(=O)CCC1=O [BOC-ε-aminocaproic acid-N-hydroxysuccinimide ester]	74%
O=Cc1cccc(OCCOc2cccc(C=O)c2)c1 [Ethylenedioxybis(3-benzaldehyde)]	19.3%
